The conditions of series [1]: 10 mM Na-phosphate pH 7.4; limits peptide/heme ratio to 45:1.
The target of series [2] is T1, myeloperoxidase (MPO) (Homo sapiens, UniProt P05164).
T1 construct: Native myeloperoxidase (MPO) was obtained from human leukocyte extract by successive chromatography on heparin-Sepharose and phenyl-agarose; from tissue; host or cells: human leukocyte extract
Description: Dityrosine fluorescence detection during MPO/H2O2 reaction. The class given is biochemical. To be noted: 40 μM peptide, 0.4 μM MPO heme, 50 μM H2O2, 10 mM Na-phosphate pH 7.4, 0.2 mM DTPA, λex 315 nm. As for the experimental part: Formation of dityrosine during the MPO reaction with CAMPs was monitored by fluorescence on a CM 2203 spectrofluorometer (Minsk, Belarus) with an excitation wavelength of 315 nm. Emission spectra were recorded between 350 nm and 500 nm, with the maximum being at 405–410 nm. MPO (0.4 μM) in a 1 mL cuvette was mixed with CAMP (40 μM) at pH 7.4 in 10 mM Na-phosphate buffer supplemented with 0.2 mM DTPA, and the starting emission spectrum was recorded. Succeeding spectra were taken at time intervals following the addition of 50 μM H2O2 to the continuously stirred reaction mixture.
Since dityrosine is an intensely fluorescent compound, the fluorescence method can be applied to detect its formation. MPO (0.4 µM heme) and tyrosine-containing Hm-AMP2 (40 µM) or HM-AMP8 (40 µM) were mixed in a cuvette in 10 mM Na-phosphate buffer, pH 7.4. No emission peak characteristic of dityrosine was observed. Succeeding spectra were recorded at time intervals after H2O2 (50 µM) addition. Dityrosine formation was monitored by the increase in fluorescence intensity.

Series [3] concerns the target T1, myeloperoxidase (MPO). Briefly: MPO heme absorbance spectra (Compound II formation and decay, MPO turnover). It is filed as biochemical. To be noted: 100 μM H2O2, 10 mM Na-phosphate pH 7.4. As for the experimental part:
Native myeloperoxidase (MPO) was obtained from human leukocyte extract by successive chromatography on heparin-Sepharose and phenyl-agarose followed by gel-filtration on a Sephacryl S-200 HR, as previously described. The Reinheit Zahl value (A430 nm/A280 nm) for the purified protein was 0.85. The MPO concentration was determined as the heme concentration measured spectrophotometrically at 430 nm with a molar extinction coefficient of 91,000 M^−1 cm^−1 [35].
Spectra of MPO were recorded on a Cary 50 Bio UV-Vis spectrophotometer (Varian, Mulgrave, Australia). Experiments were performed with Eppendorf UVette plastic UV/Vis cuvettes (Hamburg, Germany). An MPO concentration was 2 μM heme. MPO was mixed with CAMP in 10 mM Na-phosphate buffer (pH 7.4) supplemented with 0.2 mM DTPA. H2O2 was added as a microvolume of concentrated solution (100 μM final).
To elucidate the influence of CAMPs on MPO catalytic activity, we analyzed absorbance spectral changes for MPO activated by H2O2 in the presence of peptides. The spectra were obtained with 2 μM MPO heme and 100 μM H2O2 in 10 mM Na-phosphate buffer, pH 7.4. All reactions in these and further experiments were performed in buffers supplemented with 0.2 mM diethylenetriaminepentaacetic acid (DTPA) to sequester free transition metal ions to prevent tyrosine and cysteine autooxidation.
Figure 2 Time courses of spectral absorbance changes at 430 nm (indicative of MPO ground state) and 455 nm (indicative of Compound II) in the absence and presence of cationic antimicrobial peptides (CAMPs) in the system MPO/H2O2. The name of CAMP is given in parentheses after the panel designation (A–D). H2O2 (100 µM) was added to MPO (2 µM heme) or MPO preincubated with peptides at different peptide/heme molar ratios for 5 min in 10 mM Na-phosphate buffer, pH 7.4. Spectra were taken before and 0.25 min, 5 min, 10 min, and so on after adding H2O2. The initial absorbance values (before H2O2 addition) are shown as a red square marker. […]

“Also recorded” adds a separate entry of the source.

T1 sequence (P05164 279-745 limits assumed): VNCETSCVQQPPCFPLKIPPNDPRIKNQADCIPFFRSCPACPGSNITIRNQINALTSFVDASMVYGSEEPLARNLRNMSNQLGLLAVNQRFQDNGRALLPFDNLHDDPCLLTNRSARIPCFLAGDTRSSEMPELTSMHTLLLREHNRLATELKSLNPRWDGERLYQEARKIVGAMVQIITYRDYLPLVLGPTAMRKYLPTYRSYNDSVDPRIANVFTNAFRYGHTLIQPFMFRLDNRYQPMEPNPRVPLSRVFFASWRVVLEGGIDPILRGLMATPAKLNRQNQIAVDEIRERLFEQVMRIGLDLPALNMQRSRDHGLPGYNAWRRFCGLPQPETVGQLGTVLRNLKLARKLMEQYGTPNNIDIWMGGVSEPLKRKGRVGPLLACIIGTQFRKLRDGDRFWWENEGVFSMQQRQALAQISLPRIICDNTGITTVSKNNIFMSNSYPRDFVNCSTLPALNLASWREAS
T1 sequence (P05164 165-273 limits assumed): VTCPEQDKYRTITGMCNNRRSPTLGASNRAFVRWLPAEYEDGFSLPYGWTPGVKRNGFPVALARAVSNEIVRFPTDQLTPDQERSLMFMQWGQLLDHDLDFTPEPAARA

“EKRWRRLIFNYF [Hm-AMP2, synthetic cationic antimicrobial peptide …]”: in series [1], the “solubility in phosphate buffer” value is listed as “poor solubility”. Moreover, the “dityrosine formation (fluorescence)” value at myeloperoxidase (MPO) [2] was “time-dependent generation of dityrosine; also recorded: diY formation”. Moreover, the “effect on H2O2-induced formation and decay of MPO Compound II / MPO turnover (summary)” value on myeloperoxidase (MPO) [3] (2 μM MPO heme, all concentrations) is recorded as “accelerated MPO turnover; also recorded: Acceleration of CII reduction to native MPO”. Also, the “effect on Compound II decay to native MPO” value at myeloperoxidase (MPO) [3] (peptide/heme molar ratio up to 45:1, 2 μM MPO heme) is “accelerated Compound II decay to native MPO, with the effect being greater at a higher peptide/heme molar ratio”.

The values are drawn from article PMC9774438, “Effects of Synthetic Short Cationic Antimicrobial Peptides on the Catalytic Activity of Myeloperoxidase, Reducing Its Oxidative Capacity” (Antioxidants, 2022).
